Assay results from paper PMC4877642 (2016).

Columns and labels:
[1] = tested on: X-Aptamer 5 (DNA, aptamer, dU with phenol (tyrosine) at C5 (Y) at 23; dU with indole (tryptophan) at C5 (W) at 37 and 38) TTTTTTTCTAGCTTCCGTGAAATCAACGTGCCCTGGTTCGTCTAGTTTTT; test: SPR imaging; settings: 10 mM PBS; pH 7.4, 4% acetonitrile, room temperature; tested at 63 µg/mL
[2] = tested on: X-Aptamer 6 (DNA, aptamer, dU with phenol (tyrosine) at C5 (Y) at 23; dU with indole (tryptophan) at C5 (W) at 37) TTTTTTTCTAGCTTCCGTGAAATCAACGTGCCCTGGTTAGTCTAGTTTTT; test: SPR imaging, kinetic 1:1 fit; settings: 10 mM PBS; pH 7.4, 4% acetonitrile, room temperature; 150 µM progesterone injected in screening
[3] = tested on: X-Aptamer 9 (DNA, aptamer, dU with phenol (tyrosine) at C5 (Y) at 23; dU with indole (tryptophan) at C5 (W) at 36, 37 and 39) TTTTTTTCTAGCTTCCGTGAAATCAACGTGCCCTGTTATCGCTAGTTTTT; test: SPR imaging, kinetic 1:1 fit; settings: 10 mM PBS; pH 7.4, 4% acetonitrile, room temperature; 150 µM progesterone injected in screening
[4] = tested on: X-Aptamer 2 (DNA, aptamer, dU with phenol (tyrosine) at C5 (Y) at 18; dU with indole (tryptophan) at C5 (W) at 38) TTTTTTTCTAGCTTCGTTTGTCTCAACGTGCCCTGCGTCGTGATCTTTTT; test: SPR imaging, kinetic 1:1 fit; settings: 10 mM PBS; pH 7.4, 4% acetonitrile, room temperature; 150 µM progesterone injected in screening
[5] = tested on: X-Aptamer 8 (DNA, aptamer, dU with phenol (tyrosine) at C5 (Y) at 23; dU with indole (tryptophan) at C5 (W) at 37, 39 and 41) TTTTTTTCTAGCTTCCGTGAAATCAACGTGCCCTGGTATCTGATCTTTTT; test: SPR imaging, kinetic 1:1 fit; settings: 10 mM PBS; pH 7.4, 4% acetonitrile, room temperature; 150 µM progesterone injected in screening
[6] = tested on: X-Aptamer 3 (DNA, aptamer, dU with phenol (tyrosine) at C5 (Y) at 18; dU with indole (tryptophan) at C5 (W) at 38) TTTTTTTCTAGAGATGTTTGTCTCAACGTGCCCTGCGTCGTGATCTTTTT; test: SPR imaging, kinetic 1:1 fit; settings: 10 mM PBS; pH 7.4, 4% acetonitrile, room temperature; 150 µM progesterone injected in screening
[7] = tested on: X-Aptamer 7 (DNA, aptamer, dU with phenol (tyrosine) at C5 (Y) at 23; dU with indole (tryptophan) at C5 (W) at 36 and 37) TTTTTTTCTAGCTTCCGTGAAATCAACGTGACCTGTTTAGTGATCTTTTT; test: SPR imaging, kinetic 1:1 fit; settings: 10 mM PBS; pH 7.4, 4% acetonitrile, room temperature; 150 µM progesterone injected in screening
[8] = tested on: X-Aptamer 5 (DNA, aptamer, dU with phenol (tyrosine) at C5 (Y) at 23; dU with indole (tryptophan) at C5 (W) at 37 and 38) TTTTTTTCTAGCTTCCGTGAAATCAACGTGCCCTGGTTCGTCTAGTTTTT; test: SPR imaging, kinetic 1:1 fit; settings: 10 mM PBS; pH 7.4, 4% acetonitrile, room temperature; 150 µM progesterone injected in screening

Row | binding [1] | KD [2] | KD [3] | KD [4] | KD [5] | KD [6] | KD [7] | KD [8] | Compound
1 | no |  |  |  |  |  |  |  | C[C@]12CC[C@@H]3c4ccc(O)cc4CC[C@H]3[C@@H]1CC[C@@H]2O
2 |  | 0.05303 ± 6.1e-05 nM | 0.06186 ± 7.6e-05 nM | 0.04951 ± 9.9e-05 nM | 0.04079 ± 7.6e-05 nM | 0.02174 ± 8.7e-05 nM | 0.14037 ± 6.4e-05 nM | 0.02558 nM | CC(=O)[C@H]1CC[C@H]2[C@@H]3CCC4=CC(=O)CC[C@]4(C)[C@H]3CC[C@]12C
